# In publication PMC9916441, “Resveratrol Derivative Exhibits Marked Antiproliferative Actions, Affecting Stemness in Pancreatic Cancer Cells” (International Journal of Molecular Sciences, 2023):
# pIC50: −log10 of the molar value.
# Columns and labels:
# AsPC-1 [1] = assay: Colony formation assay; type: cell-based, human; conditions: AsPC-1, 20 µM, 72 h treatment
# Procedure: (§1) A colony formation assay was performed as previously described. Briefly, the PC cells were seeded in 6-well plates, incubated for 24 h, and then treated for 72 h with 20 μM DF5, DF12, and RSV or with vehicle (DMSO) as indicated. After 4 days, following methanol fixation and crystal violet staining, the colonies of at least 30 cells were counted.
# BxPC-3 [2] = assay: Colony formation assay; type: cell-based, human; conditions: BxPC-3, 20 µM, 72 h treatment
# Procedure: as §1
# Capan-2 [3] = assay: Colony formation assay; type: cell-based, human; conditions: Capan-2, 20 µM, 72 h treatment
# Procedure: as §1
# AsPC-1 [4] = assay: MTT cell viability assay; type: cell-based, human; conditions: for pIC50: Homo sapiens, ASPC1, AsPC-1, MTT, 72 h
# Procedure: (§2) The cell viability was assessed using MTT assay, as previously described. Briefly, the cells were seeded in 96-well plates (4 × 10^3 cells/well) and were treated for 72 h with different concentrations of RSV, DF5, and DF12. The IC50 values were extrapolated from dose–response curves and calculated using the CompuSyn software (https://www.combosyn.com/). The selectivity index (SI) values were calculated as ratios between the IC50 values of compounds in normal HFF-1 fibroblast cells and the IC50 values of the same compounds in the PC cell lines.
# BxPC-3 [5] = assay: MTT cell viability assay; type: cell-based, human; conditions: for pIC50: Homo sapiens, BxPC-3, MTT, 72 h
# Procedure: as §2
# Capan-2 [6] = assay: MTT cell viability assay; type: cell-based, human; conditions: for pIC50 / viability at 50 µM: Homo sapiens, Capan-2, MTT; for pIC50: 72 h; for viability at 50 µM: plateau reached already at 50 µM, read-out: residual viability
# Procedure: as §2
# [7] = test system: poly-(ADP-ribose) polymerase (PARP); assay: Western blot of PARP cleavage in PC cell lines; type: cell-based, human; conditions: vs untreated cells
# Procedure: (§3) The PC cell lines treated with 50 μM DF5, RSV, or with vehicle (DMSO) were lysed in a cell lysis buffer containing PMSF, protease inhibitors cocktails, and phosphatase inhibitors. The protein lysate quantification and immunoblot analyses were performed as previously described.
# AsPC-1 [8] = assay: Apoptosis assay, annexin-V staining by flow cytometry; type: cell-based, human; conditions: 24 h
# Procedure: (§4) The apoptosis assay was performed essentially as previously described. the analyses were performed using a CytoFLEX flow cytometer, using the FL1 detector in linear mode and the CytoExpert software (Beckmann Coulter, Milano, Italy).
# BxPC-3 [9] = assay: as above; type: cell-based, human; conditions: 24 h
# Procedure: as §4
# Capan-2 [10] = assay: as above; type: cell-based, human; conditions: 24 h
# Procedure: as §4
# cyclin B1/CDK1 complex = assay: Western blot of cyclin B1, Cdc2/Cdk1 and p-Cdc2 (Thr161) in PC cell lines; type: cell-based, human; conditions: 50 μM, BxPC-3
# Procedure: as §3
# [11] = test system: normal HFF-1 fibroblast cells; assay: MTT cell viability assay on normal fibroblasts; type: cell-based, human; conditions: 72 h
# Procedure: as §2
# [12] = design: method as in PMID 25224342; conditions: based on solubility of ref 43; cited from earlier work
# p-SER^139H2AX = assay: Western blot of phospho-H2AX (γH2AX) in PC cell lines; type: cell-based, human
# Procedure: as §3
# [13] = test system: AsPC-1, BxPC-3 and Capan-2 PC cell lines; assay: Cell cycle analysis by flow cytometry; type: cell-based, human; conditions: 50 μM, 24 h
# Procedure: To perform the cell cycle analysis, the PC cells (3 × 10^5) were collected, fixed in 70% cold ethanol, and kept at 4 °C overnight. The collected cells were incubated at 4 °C overnight in 5 μg/mL PI (final concentration) and 100 μg/mL RNAse (final concentration). The cell cycle profiles were analyzed as previously described.
# Cyclin D3 = assay: Western blot of cyclin D3 in PC cell lines; type: cell-based, human; conditions: 50 μM
# Procedure: as §3
# [14] = test system: AsPC-1, BxPC-3 and Capan-2 PC cell lines; assay: Cell growth, trypan blue exclusion test; type: cell-based, human; conditions: 50 μM, counted at 24, 48 and 72 h, three PC cell lines, vs control
# Procedure: The cell counting was performed using the trypan blue exclusion test. Briefly, PC cells were seeded in 24-well plates (5 × 10^4 cells/well) and then were treated with 50 μM of DF5, RSV, or with vehicle and counted at 24, 48, and 72 h.
# AsPC-1 [15] = assay: Flow cytometry immunophenotyping of CD133+EpCAM+ cancer stem-like subpopulation; type: cell-based, human; conditions: AsPC-1, 20 μM, 72 h
# Procedure: (§5) The expression of CD133 and EpCAM surface antigens was evaluated using flow cytometry. Briefly, the PC cells were seeded in 6-well plates and treated for 72 h with 20 μM DF5, RSV, or with vehicle (DMSO). After treatment, the cells were collected in PBS and stained at room temperature in the dark for 30 min with PE-CD133, FITC-EpCAM antibodies, and Reactive Dye. After labeling, the samples were washed in PBS by centrifugation at 1500 rpm for 10 min, to remove excess antibodies. Flow cytometer performance, stability, and data reproducibility were daily checked by using the CS&T quality control Module (BD Biosciences). The gating strategy and the evaluation of non-specific fluorescence was determined using fluorescence minus one (FMO) controls. The data were acquired with FACSVerse analyzer equipped with a volumetric count module (BD Biosciences, San Jose, CA, USA) and are expressed as the percentage of positive cells.
# BxPC-3 [16] = assay: as above; type: cell-based, human; conditions: BxPC-3, 20 μM, 72 h
# Procedure: as §5
# Capan-2 [17] = assay: as above; type: cell-based, human; conditions: Capan-2, 20 μM, 72 h
# Procedure: as §5
compound,measurement,setting,value
Oc1ccc(/C=C/c2ccc3ccccc3c2)cc1 [DF12],effect on clonogenicity (colony formation),AsPC-1 [1],relevant effects on clonogenic capacity
same,effect on clonogenicity (colony formation),BxPC-3 [2],relevant effects on clonogenic capacity
same,effect on clonogenicity (colony formation),Capan-2 [3],marginal effects
same,pIC50,AsPC-1 [4],4.96
same,pIC50,BxPC-3 [5],4.74
same,pIC50,Capan-2 [6],4.24
same,viability at 50 µM,Capan-2 [6],> 50%
"Oc1ccc(/C=C/c2cc(O)cc(O)c2)cc1 [RSV, 3,5,4′-trihydroxy-trans-stilbene, reference compound]",effect on cleaved:uncleaved PARP ratio,"[7]; AsPC-1, 50 μM",affected the PARP cleavage ratio
same,effect on cleaved:uncleaved PARP ratio,"[7]; BxPC-3, 50 μM",small
same,effect on cleaved:uncleaved PARP ratio,"[7]; Capan-2, 50 μM",negligible
same,apoptosis induction (Annexin V+ cells),"AsPC-1 [8]; AsPC-1, 20 μM",statistically significant apoptosis
same,apoptosis induction (Annexin V+ cells),"AsPC-1 [8]; AsPC-1, 50 μM",significant but less marked increment of apoptotic cells
same,apoptosis induction (Annexin V+ cells),"BxPC-3 [9]; BxPC-3, 20 μM",neither compound affected apoptosis
same,apoptosis induction (Annexin V+ cells),"BxPC-3 [9]; BxPC-3, 50 μM",significant but less marked increment of apoptotic cells
same,apoptosis induction (Annexin V+ cells),"Capan-2 [10]; Capan-2, 20 μM",statistically significant apoptosis
same,apoptosis induction (Annexin V+ cells),"Capan-2 [10]; Capan-2, 50 μM",significant but less marked increment of apoptotic cells
same,effect on clonogenicity (colony formation),AsPC-1 [1],"significantly, but modestly, affected clonogenic activity"
same,effect on clonogenicity (colony formation),BxPC-3 [2],"significantly, but modestly, affected clonogenic activity"
same,effect on clonogenicity (colony formation),Capan-2 [3],"significantly, but modestly, affected clonogenic activity"
same,effect on expression of the cyclin B1/CDK1 complex,cyclin B1/CDK1 complex,much less evident
same,toxicity against normal HFF-1 fibroblast cells,[11]; up to 100 μM,negligible toxicity
same,pIC50,"[11]; Homo sapiens, normal HFF-1 fibroblasts, 100 μM highest concentration used",< 4.00
same,Classification (water solubility),[12],PI (PI (Practically Insoluble))
same,activation (phosphorylation) of H2AX,"p-SER^139H2AX; AsPC-1, 50 μM",increased H2AX phosphorylation
same,activation (phosphorylation) of H2AX,"p-SER^139H2AX; BxPC-3, 50 μM",to a lesser extent
same,activation (phosphorylation) of H2AX,"p-SER^139H2AX; Capan-2, 50 μM",no activation of H2AX
same,effect on cells in G0/G1 phase,"[13]; across the three PC cell lines, vs untreated cells",statistically significant accumulation of cells at the G0/G1 phase
same,effect on cells in G2/M phase,"[13]; three PC cell lines, in Capan-2 it did not reach statistical significance",drastic depletion of cells in the G2/M phase
same,pIC50,AsPC-1 [4],4.54
same,Selectivity Index (SI) AsPC-1,AsPC-1 [4]; SI = IC50 on normal HFF-1 fibroblast cells/IC50 on AsPC-1,> 3.45
same,pIC50,BxPC-3 [5],4.31
same,Selectivity Index (SI) BxPC-3,BxPC-3 [5]; SI = IC50 on normal HFF-1 fibroblast cells/IC50 on BxPC-3,> 2.05
same,pIC50,Capan-2 [6],< 4.00
same,viability at 50 µM,Capan-2 [6],> 50%
same,Selectivity Index (SI) Capan-2,Capan-2 [6]; SI = IC50 on normal HFF-1 fibroblast cells/IC50 on Capan-2,> 1.00
same,effect on cyclin D3 expression,Cyclin D3,present but less marked
same,effect on cell growth (cell number),[14],"significantly, drastically, and comparably affected cell growth"
same,effect on percentage of CD133+EpCAM+ cancer stem-like subpopulation,AsPC-1 [15],did not affect this subpopulation
same,effect on percentage of CD133+EpCAM+ cancer stem-like subpopulation,BxPC-3 [16],more marked effect
same,effect on percentage of CD133+EpCAM+ cancer stem-like subpopulation,Capan-2 [17],did not affect this subpopulation
